The results in this text go back to patent US7335659B2, “Substituted 10-aryl-11H-benzo[b]fluorenes and 7-aryl-5, 6-dihydro-benzo[a]anthracenes for selective effects on estrogen receptors” (N.V. Organon, priority 2002, dated 2008).

T1 sequence (Q92731 whole entry): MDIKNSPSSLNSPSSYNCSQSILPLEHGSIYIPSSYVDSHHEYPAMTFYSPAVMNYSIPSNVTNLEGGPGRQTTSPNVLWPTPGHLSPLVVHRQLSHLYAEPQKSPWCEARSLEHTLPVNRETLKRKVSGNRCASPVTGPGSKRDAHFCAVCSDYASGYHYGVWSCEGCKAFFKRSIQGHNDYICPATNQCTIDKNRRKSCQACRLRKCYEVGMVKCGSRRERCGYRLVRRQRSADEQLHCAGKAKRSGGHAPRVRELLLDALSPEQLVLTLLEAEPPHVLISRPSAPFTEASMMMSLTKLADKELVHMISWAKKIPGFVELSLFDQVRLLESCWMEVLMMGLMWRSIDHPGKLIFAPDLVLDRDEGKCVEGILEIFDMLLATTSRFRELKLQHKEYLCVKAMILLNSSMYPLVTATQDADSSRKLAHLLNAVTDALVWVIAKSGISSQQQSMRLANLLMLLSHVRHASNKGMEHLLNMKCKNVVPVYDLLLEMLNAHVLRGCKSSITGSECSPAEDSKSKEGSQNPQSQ

This test concerns the target T1, human estrogen receptor β receptor (hERβ) (Homo sapiens, UniProt Q92731).
T1 construct: expressed in transfected cells; host or cells: Chinese hamster ovary (CHO) cells, stably co-transfected with hERβ, rat oxytocin promoter and luciferase reporter gene
Put plainly: Antiestrogenic activity in in vitro bioassay with recombinant CHO cells co-transfected with hERβ, rat oxytocin promoter and luciferase reporter gene. It counts as cell-based. The note with it: potency ratio relative to standard ICI 164.384; inhibition of estradiol-induced luciferase transactivation via hERβ in CHO cells. As to the method:
The estrogenic and antiestrogenic activity of compounds is determined in an in vitro bioassay with recombinant Chinese hamster ovary (CHO) cells stably co-transfected with the human estrogen receptor α (hERα) or β receptor (hERβ), the rat oxytocin promoter (RO) and the luciferase reporter gene (LUC). The estrogenic activity (potency ratio) of a test compound to stimulate the transactivation of the enzyme luciferase mediated via the estrogen receptors hERα or hERβ is compared with the standard estrogen estradiol. The antiestrogenic activity (potency ratio) of a test compound to inhibit the transactivation of the enzyme luciferase mediated via the estrogen receptors hERα or hERβ by the estrogen estradiol is compared with the standard ICI 164.384 (=(7α, 17β)-N-butyl-3,17-dihydroxy-N-methylestra-1,3,5(10)-triene-7-undecanamide).
As to `Oc1ccc2c(c1)Cc1c-2cc2ccc(O)cc2c1-c1ccc(OC(F)(F)F)cc1` [Compound 5r], the ERβ antagonism result is reported as “++ (>40%: ++)”.

Take `COc1ccc(-c2c3c(cc4ccc(O)cc24)-c2ccc(O)cc2C3)cc1` [Compound 5k]: the ERβ antagonism result is given as “+ (>5% (relative to ICI): +)”.

As for `COc1cccc(-c2c3c(cc4ccc(O)cc24)-c2ccc(O)cc2C3)c1` [Compound 5c], the ERβ antagonism entry was “+ (>5% (relative to ICI): +)”.

Regarding `Oc1ccc2c(c1)Cc1c-2cc2ccc(O)cc2c1-c1ccc(Cl)c(Cl)c1` [Compound 5m], the ERβ antagonism entry is “++ (>40%: ++)”.

Consider `Oc1ccc2c(c1)Cc1c-2cc2ccc(O)cc2c1-c1ccc(F)cc1` [Compound 5l], for which the ERβ antagonism result was “++ (>40%: ++)”.

On to `CC(C)c1cccc(-c2c3c(cc4ccc(O)cc24)-c2ccc(O)cc2C3)c1` [Compound 5q], for which the ERβ antagonism entry is “+ (>5% (relative to ICI): +)”.

With `Oc1ccc2c(c1)Cc1c-2cc2ccc(O)cc2c1-c1cccc(Cl)c1` [Compound 5n], the ERβ antagonism entry was “+ (>5% (relative to ICI): +)”.

In the case of `Oc1ccc2c(c1)Cc1c-2cc2ccc(O)cc2c1-c1ccc(-c2ccccc2)cc1` [Compound 5h], the ERβ antagonism entry is recorded as “+ (>5% (relative to ICI): +)”.

For the compound `Cc1cccc(-c2c3c(cc4ccc(O)cc24)-c2ccc(O)cc2C3)c1` [Compound 5p], the ERβ antagonism entry is “+ (>5% (relative to ICI): +)”.

As for `Oc1ccc2c(c1)Cc1c-2cc2ccc(O)cc2c1-c1ccccc1` [Compound 5v], the ERβ antagonism result was “+ (>5% (relative to ICI): +)”.

For `Oc1ccc2c(c1)Cc1c-2cc2ccc(O)cc2c1-c1ccc(Cl)cc1` [Compound 5a], the ERβ antagonism result is reported as “+ (>5% (relative to ICI): +)”.

With `Oc1ccc2c(c1)Cc1c-2cc2ccc(O)cc2c1-c1ccccc1C(F)(F)F` [Compound 5u], the ERβ antagonism entry is listed as “++ (>40%: ++)”.

Turning to `Oc1ccc2c(c1)Cc1c-2cc2ccc(O)cc2c1-c1ccc(-c2ccccc2)c(F)c1` [Compound 5s], the ERβ antagonism result is “+ (>5% (relative to ICI): +)”.

Regarding `Oc1ccc2c(c1)Cc1c-2cc2ccc(O)cc2c1-c1ccc(OCCN2CCCCC2)cc1` [Compound 9], the ERβ antagonism result was “++ (>40%: ++)”.

Consider `Cc1ccc(-c2c3c(cc4ccc(O)cc24)-c2ccc(O)cc2C3)cc1` [Compound 5e], for which the ERβ antagonism result is reported as “++ (>40%: ++)”.

Consider `Oc1ccc2c(c1)Cc1c-2cc2ccc(O)cc2c1-c1ccc2ccccc2c1` [Compound 5b], for which the ERβ antagonism entry is given as “+ (>5% (relative to ICI): +)”.

Consider `Oc1ccc2c(c1)Cc1c-2cc2ccc(O)cc2c1-c1ccc(C(F)(F)F)cc1` [Compound 5o], for which the ERβ antagonism result was “+ (>5% (relative to ICI): +)”.

On to `Oc1ccc2c(c1)Cc1c-2cc2ccc(O)cc2c1-c1ccc(F)c(Cl)c1` [Compound 5f], for which the ERβ antagonism entry was “+ (>5% (relative to ICI): +)”.

Consider `Oc1ccc2c(c1)Cc1c-2cc2ccc(O)cc2c1-c1ccc2c(c1)OCO2` [Compound 5g], for which the ERβ antagonism entry is reported as “+ (>5% (relative to ICI): +)”.

`Oc1ccc2c(c1)Cc1c-2cc2ccc(O)cc2c1-c1cccc(F)c1` [Compound 5j]: the ERβ antagonism result is “+ (>5% (relative to ICI): +)”.

As for `Oc1ccc2c(c1)Cc1c-2cc2ccc(O)cc2c1-c1cccc(C(F)(F)F)c1` [Compound 5d], the ERβ antagonism result is recorded as “+ (>5% (relative to ICI): +)”.
